Values joined by “and” are separate entries in the source; they are usually repeats but may differ in a detail not shown here. Equal entries are not always repeated.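 A five-concentration, 48-hour dose response in 96-well plates underlies each endpoint, interpolated linearly between surrounding concentrations. GI50 = concentration required for 50% inhibition of growth. At the TGI there is no net growth.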
Legend:
Assay in all cases: NCI tumour cell line growth inhibition, 48 h
OVCAR-8 ovarian = tested on: OVCAR-8 ovarian
OVCAR-5 ovarian = tested on: OVCAR-5 ovarian
CCRF-CEM leukemia = tested on: CCRF-CEM leukemia
SK-MEL-28 melanoma = tested on: SK-MEL-28 melanoma
HCT-116 colon = tested on: HCT-116 colon
A498 renal = tested on: A498 renal
MDA-MB-231 breast = tested on: MDA-MB-231 breast
NCI-H226 lung = tested on: NCI-H226 lung
SNB-75 CNS = tested on: SNB-75 CNS
NCI-H460 lung = tested on: NCI-H460 lung

SMILES	TGI (OVCAR-8 ovarian) [µM]	TGI (OVCAR-5 ovarian) [µM]	TGI (CCRF-CEM leukemia) [µM]	TGI (SK-MEL-28 melanoma)	TGI (HCT-116 colon) [µM]	TGI (A498 renal) [µM]	TGI (MDA-MB-231 breast) [µM]	TGI (NCI-H226 lung) [µM]	TGI (SNB-75 CNS) [µM]	TGI (NCI-H460 lung)	GI50 (OVCAR-8 ovarian) [µM]	GI50 (OVCAR-5 ovarian) [µM]	GI50 (CCRF-CEM leukemia)	GI50 (SK-MEL-28 melanoma)	GI50 (HCT-116 colon) [µM]	GI50 (SNB-75 CNS) [µM]	GI50 (NCI-H460 lung)	GI50 (MDA-MB-231 breast) [µM]	GI50 (NCI-H226 lung) [µM]	GI50 (A498 renal) [µM]
OC(COC(c1ccccc1)(c1ccccc1)c1ccccc1)C(O)CC1SCCS1 (configuration not stated)	57.7	44	> 100	48.8 µM	37.1	28.4	35.2	35.3	–	–	–	–	–	–	–	–	–	–	–	–
O=C(CCCN1CCC(O)(c2ccc(Cl)cc2)CC1)c1ccc(F)cc1	> 100	> 100	> 100	36.9 µM	33.6	–	51.5	> 100	68.9	45.1 µM	–	–	–	–	–	–	–	–	–	–
COc1ccc(/C(COc2ccc3oc(-c4ccccc4)cc(=O)c3c2)=N\O)cc1	–	> 25.5	> 50	5.13 µM	9.36	–	9.17	> 50	23.2	> 16.3 µM	0.209	0.377	0.346 µM	0.65 µM	< 0.005	1.3	0.0882 µM	0.182	12.3	–
CC(=O)Nc1c(Nc2ccccc2)[nH]c(C)nc1=S	> 100	> 100	> 100	> 100 µM	–	–	–	–	> 100	> 100 µM	–	–	–	–	–	–	–	–	–	–
Cc1ccccc1NC(=O)c1sc2nc(C)c(C(=O)/C=C/c3ccccc3)cc2c1N	> 50	2.62	> 50	3.72 µM	1.96	4.27	11	2.35	–	3.22 µM	1.6	1.01	1.5 µM	1.26 µM	0.896	–	1.25 µM	1.8	1.07	1.23
c1ccc2c3c([nH]c2c1)[C@H]1C2CCCCN2CN1CC3 (some centres not stated)	> 100	> 100	> 100	> 100 µM	> 100	> 100	–	–	> 100	> 100 µM	–	–	–	–	–	–	–	–	–	–
CCCCCCCCCCCCCC[N+](C)(C)CCCCCCCCCCCCCC	–	9.91	–	–	–	28	–	–	–	–	–	2.92	–	–	–	–	–	–	–	5.07
CNC(=O)c1c(NC(=O)c2ccc(C(C)(C)C)cc2)sc2c(CN(C)C)c(O)ccc12	–	3.68	4.68	3.19 µM	2.43	–	3.67	–	–	2.53 µM	–	1.85	1.2 µM	1.73 µM	0.936	–	1.14 µM	1.81	–	–
CC1/C(=N\O)CC(c2ccccc2)N(C)C1c1ccccc1 (configuration not stated)	> 100	> 100	> 100	> 100 µM	> 100	> 100	–	> 100	> 100	> 100 µM	–	–	–	–	–	–	–	–	–	–
CC(N)(Cc1c[nH]c2cccc(F)c12)C(=O)O (configuration not stated)	> 1000	> 1000	> 1000	> 1000 µM	> 1000	> 1000	> 1000	–	> 1000	> 1000 µM	> 1000	> 1000	> 1000 µM	> 1000 µM	> 1000	405	> 1000 µM	> 1000	–	> 1000
Nc1ccc(C2=CC(c3ccc(Cl)cc3)N3C=CSC3=N2)cc1 (configuration not stated)	48.1	34.7	–	16.6 µM	3.2	23.8	46.9	> 100	22.8	> 100 µM	4.16	12.2	–	4.86 µM	1.66	5.29	20.2 µM	4.76	9.36	6.17
CN(C)CCNC(=O)c1cccc2cc3c(Cl)cccc3nc12	> 20.3	6.68	–	5.4 µM	2.97	3.21	–	2.73	8.37	–	–	–	–	–	–	–	–	–	–	–
COc1ccc(Cc2coc3ccccc3c2=O)cc1OC	> 100	> 100	> 100	> 100 µM	> 100	–	> 100	> 100	> 100	> 100 µM	–	–	–	–	–	–	–	–	–	–
CCOC(=O)C(=O)CC1=Nc2ccccc2SC(c2cccc(C)c2)C1 (configuration not stated)	25.1	31.8	63.1	29.3 µM	27.8	33	–	32.5	38.7	36.4 µM	–	–	–	–	–	–	–	–	–	–
CCCCCCCCCCCCCCCCCCn1cc[n+](C)c1	–	2	–	2.41 µM and 2.59 µM	–	3.09	2.52	–	–	1.8 µM and 2.11 µM	–	0.605	0.127 µM and 0.458 µM	1.01 µM and 1.15 µM	–	–	0.521 µM and 0.659 µM	1.08	–	1.07
COc1ccc(-c2nc(-c3ccc(C)cc3)cn3ccnc23)cc1	> 5	> 50	> 50	–	> 50	–	38.8	–	–	20.1 µM	> 5	28.9	5.47 µM	–	2.61	–	2.53 µM	4.24	–	–
CCc1cccc(C)c1NC(=O)C(=O)CC(=O)c1ccc(Cl)s1	> 100	–	> 100	> 100 µM	> 100	> 100	–	> 100	> 100	> 100 µM	–	–	–	–	–	–	–	–	–	–
COC12C=C/C(=C(/C(=O)OCc3ccccn3)C(=O)CCCCCCCCC3(OC)C=C/C(=C(/C(=O)OCc4ccccn4)C(=O)CCCCCCCC1)O3)O2	> 100	5.62	–	3.62 µM	0.47	2.29	> 100	0.648	2.37	–	0.406	0.538	–	0.481 µM	0.223	0.827	–	0.485	0.25	1.06
Cc1csc2[n+]1-c1ccccc1N(C(=O)Nc1ccccc1)C(C)C2 (configuration not stated)	> 100	99.5	69.6	> 100 µM	31.5	–	45.3	> 100	–	> 100 µM	> 100	28.6	29.5 µM	> 100 µM	16.5	–	81 µM	18.6	> 100	–
O=[N+]([O-])C=C(c1ccc(Cl)cc1)c1ccc(Cl)cc1	36.3	27.7	67.7	31 µM	31.5	36.2	–	30.7	39.7	36.7 µM	–	–	–	–	–	–	–	–	–	–

SMILES	TGI (OVCAR-8 ovarian) [µM]	TGI (OVCAR-5 ovarian) [µM]	TGI (CCRF-CEM leukemia) [µM]	TGI (SK-MEL-28 melanoma)	TGI (HCT-116 colon) [µM]	TGI (A498 renal) [µM]	TGI (MDA-MB-231 breast) [µM]	TGI (NCI-H226 lung) [µM]	TGI (SNB-75 CNS) [µM]	TGI (NCI-H460 lung)	GI50 (OVCAR-8 ovarian) [µM]	GI50 (OVCAR-5 ovarian) [µM]	GI50 (CCRF-CEM leukemia)	GI50 (SK-MEL-28 melanoma)	GI50 (HCT-116 colon) [µM]	GI50 (SNB-75 CNS) [µM]	GI50 (NCI-H460 lung)	GI50 (MDA-MB-231 breast) [µM]	GI50 (NCI-H226 lung) [µM]	GI50 (A498 renal) [µM]
CN(C)C(=N/O)/C(=N\O)N(C)C	> 100	> 100	> 100	> 100 µM	> 100	> 100	–	> 100	> 100	> 100 µM	–	–	–	–	–	–	–	–	–	–
CCOP(=O)(OCC)C1CCCOC1=O (configuration not stated)	> 100	> 100	> 100	> 100 µM	> 100	> 100	–	–	> 100	> 100 µM	–	–	–	–	–	–	–	–	–	–
COC(=O)C1=C(O)[C@H](C(=O)OC)C2(O)C(C(=O)OC)[C@H](c3ccc(OC(=O)C(C)c4ccc(CC(C)C)cc4)cc3)C[C@@H]1[C@@H]2C(=O)OC (some centres not stated)	> 50	> 50	–	40.8 µM	> 50	–	22.8	–	–	> 50 µM	13.1	17	–	12.6 µM	> 50	–	13.2 µM	5.52	–	–
c1ccc(C2OC3(CCC[C@H]4C[C@H]43)O[C@H]2c2ccccc2)cc1 (some centres not stated)	> 100	> 100	49.9	–	> 100	> 100	–	> 100	91.9	> 100 µM	–	–	–	–	–	–	–	–	–	–
CC1=C(c2ccccc2)C(O)(c2ccccc2)C(C)C1=O (configuration not stated)	> 100	> 100	> 100	> 100 µM	> 100	–	> 100	> 100	42.8	> 100 µM	48	53.1	23.7 µM	25.5 µM	9.95	10.7	25.1 µM	14	33.4	–
C[CH2][Ge]([CH2]C)([CH2]C)[O]C(=O)C(OC(C)=O)c1ccccc1 (configuration not stated)	> 100	> 100	> 100	> 100 µM	> 100	> 100	–	> 100	> 100	> 100 µM	> 100	> 100	24.1 µM	> 100 µM	> 100	> 100	> 100 µM	–	> 100	> 100
ClC/C=C/COC1CCCCO1 (configuration not stated)	> 100	> 100	> 100	–	> 100	> 100	–	> 100	> 100	> 100 µM	–	–	–	–	–	–	–	–	–	–
COC(=O)N/N=C(\C)c1c(O)cc(C)oc1=O	> 100	–	> 100	> 100 µM	> 100	> 100	–	> 100	> 100	> 100 µM	–	–	–	–	–	–	–	–	–	–
COc1ccc2c3c([nH]c2c1[N+](=O)[O-])C(C)N(Cc1ccccc1)CC3 (configuration not stated)	> 100	> 100	> 100	59.5 µM	24	7.71	–	> 100	–	14.1 µM	–	–	–	–	–	–	–	–	–	–
CC1=C(/C=C/C(C)=C/C2CC(N(C)C)=CC(=O)O2)C(C)(C)CCC1 (configuration not stated)	32.3	24.1	22.3	30.9 µM	43	29.2	–	25.8	32.4	42.4 µM	–	–	–	–	–	–	–	–	–	–
O=C1CC(c2cccc(F)c2)Nc2cc3c(cc21)OCO3 (configuration not stated)	1.52	> 100	> 100	–	> 100	> 100	> 100	–	–	–	–	13.4	< 0.01 µM	–	< 0.01	–	–	0.04	< 0.01	–
CC(=O)c1c2c(cc3c1CC1(C3)Cc3cc4c(c(C(C)=O)c3C1)CCC4)CCC2	> 100	> 100	> 100	> 100 µM	> 100	–	–	–	> 100	> 100 µM	–	–	–	–	–	–	–	–	–	–
Cc1cc2c(cc1Cl)S/C(=C/C(=O)O)C(Nc1ccc3ncsc3c1)=NS2(=O)=O	> 100	> 42.4	> 53.5	> 60.6 µM	> 42.9	–	> 63.7	> 65.3	> 100	> 100 µM	32.7	23.4	7.22 µM	32.4 µM	9.93	> 100	16.2 µM	20.9	25.3	–
C[C@]12CC[C@H]3[C@@H](CC=C4C[C@@H](N5CCCC5)CC[C@@]43C)[C@@H]1C/C(=C\c1cccc(OCCN3CCOCC3)c1)[C@@H]2O	21.7	> 100	–	3.99 µM	5.13	15	5.37	53.8	34.3	> 100 µM	3.74	31	–	2.01 µM	1.66	14.6	3.28 µM	2.24	22	3.52
O=C(/C=C/c1ccccc1F)c1ccc(Cl)c(Cl)c1	> 100	> 100	67.8	> 100 µM	32.1	> 59.3	–	> 100	98.5	> 100 µM	–	–	–	–	–	–	–	–	–	–
CC1=C(C(=O)Nc2ccccc2)C(c2cccc3ccccc23)C(C(=O)Nc2ccccc2)=C(C)N1	35.8	44.6	59.6	34.7 µM	28.7	48.5	–	16	47.7	–	–	–	–	–	–	–	–	–	–	–
CN(c1ccc(C(=O)c2ccc(N(C)S(C)(=O)=O)cc2)cc1)S(C)(=O)=O	> 100	> 100	> 100	> 100 µM	> 100	> 100	–	> 100	> 100	> 100 µM	–	–	–	–	–	–	–	–	–	–
O=C1C=CC=C/C1=C1/SC(c2ccccc2)=C(O)N1c1ccccc1	> 100	> 100	–	> 100 µM	> 100	–	–	> 100	> 100	–	–	–	–	–	–	–	–	–	–	–
O=S(=O)(O)c1cc(O)c(N=Nc2ccc(O)cc2O)c2ccccc12	> 100	> 100	> 100	> 100 µM	> 100	–	> 100	48.5	> 100	–	–	–	–	–	–	–	–	–	–	–
O=C(O)[C@H](NS(=O)(=O)c1ccc(F)cc1)c1ccccc1	> 100	> 100	> 100	> 100 µM	> 100	–	–	> 100	> 100	> 100 µM	–	–	–	–	–	–	–	–	–	–
